Experimental data taken from PubChem BioAssay (NCI).
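Briefly, cells in 96-well plates were exposed to five compound concentrations for 48 h, and endpoints were estimated by linear interpolation. GI50 = concentration required for 50% inhibition of growth. TGI: concentration producing complete growth inhibition.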

Key:
Assay in all cases: inhibition of tumour cell growth, NCI panel, 48 h
EKVX NSCLC = tested on: EKVX NSCLC
MCF7 breast = tested on: MCF7 breast
SR leukemia = tested on: SR leukemia
A498 renal = tested on: A498 renal
HL-60(TB) leukemia = tested on: HL-60(TB) leukemia
KM12 colon = tested on: KM12 colon
HCT-15 colon = tested on: HCT-15 colon
SK-MEL-5 melanoma = tested on: SK-MEL-5 melanoma
PC-3 prostate = tested on: PC-3 prostate
IGROV1 ovarian = tested on: IGROV1 ovarian

Compound | TGI (EKVX NSCLC) [µM] | TGI (MCF7 breast) [µM] | TGI (SR leukemia) [µM] | TGI (A498 renal) [µM] | TGI (HL-60(TB) leukemia) [µM] | TGI (KM12 colon) [µM] | TGI (HCT-15 colon) [µM] | TGI (SK-MEL-5 melanoma) [µM] | TGI (PC-3 prostate) [µM] | TGI (IGROV1 ovarian) [µM] | GI50 (EKVX NSCLC) [µM] | GI50 (MCF7 breast) [µM] | GI50 (SR leukemia) [µM] | GI50 (A498 renal) [µM] | GI50 (KM12 colon) [µM] | GI50 (HCT-15 colon) [µM] | GI50 (SK-MEL-5 melanoma) [µM] | GI50 (PC-3 prostate) [µM] | GI50 (IGROV1 ovarian) [µM] | GI50 (HL-60(TB) leukemia) [µM]
Nc1nc(-c2cccs2)cs1 | > 100 | > 100 | > 100 | > 100 | > 100 | > 100 | > 100 | > 100 | > 100 | > 100 | – | – | – | – | – | – | – | – | – | –
COc1ccc2c(c1)C(=O)c1c-2c(NCCN(C)C)nc2ccccc12 | 16.4 | 12.2 | 2.66 | 24.6 | – | 23 | 16.6 | 19.7 | 14.2 | 7.14 | 3.06 | 2 | 0.35 | 11.3 | 2.94 | 2.72 | 6.47 | 2.93 | 1.86 | –
Cc1nc2sc(C(=O)Nc3cccc(Br)c3)c(N)c2cc1C(O)c1ccccc1 (stereo unspecified) | 21 | 17 | > 37.3 | 0.746 | 1.6 | 12.6 | 17.3 | 1.96 | 31 | 16.6 | 1.2 | 0.372 | 0.301 | 0.219 | 0.689 | 0.403 | 0.552 | 2.89 | 1.94 | 0.395
Clc1ccc2c(NCCNc3nc(N4CCCC4)nc4ccccc34)ccnc2c1 | 7.65 | 3.86 | 2.36 | 3.4 | 1.54 | 2.46 | 2.92 | 3.02 | 8.73 | 4.6 | 2.08 | 0.156 | 0.365 | 1.8 | 1.02 | 0.254 | 1.64 | 1.71 | 1.65 | 0.704
Cc1cc2nc(C(Cl)Cl)nc(-c3ccccc3)n2n1 | 20.3 | > 100 | > 100 | 11.2 | 6.35 | 4.86 | 20.8 | > 100 | 37.9 | 35.1 | 3.72 | 4.06 | 2.3 | 2.6 | 1.78 | 4.11 | 39.3 | 4.77 | 5.24 | 2.38
C=C(C)[C@@H]1CC[C@]2(C(N)=O)CC[C@]3(C)[C@H](CC[C@@H]4[C@@]5(C)C/C(=C/c6cccnc6)[C@H](O)C(C)(C)[C@@H]5CC[C@]43C)[C@@H]12 | > 100 | > 100 | > 100 | > 100 | 11.2 | > 100 | > 100 | 12.4 | > 100 | > 100 | 4.03 | 2.68 | 4.31 | 10.4 | 3.82 | 2.6 | 3.23 | 2.94 | 3.85 | 2.69
O=[N+]([O-])c1cc2c(c([N+](=O)[O-])c1)Nc1ccccc1O2 | 51.7 | > 100 | > 100 | 9.34 | – | > 100 | > 100 | 21.6 | 34 | > 100 | 4.4 | 4.96 | 5.46 | 1.73 | 6.68 | 5.49 | 3.81 | 4.12 | 7.58 | –
CCN(CC)CC[n+]1cc2cc(OC)c(OC)cc2c2ccc3cc4c(cc3c21)OCO4 | 4.04 | 2.41 | 2.12 | 2.92 | 4.69 | 2.46 | 4.51 | 2.61 | 2.25 | 2.67 | 0.967 | 0.317 | 0.248 | 0.514 | 0.515 | 1.68 | 1.31 | 0.395 | 0.649 | 1.42
Fc1cccc(-c2[nH]nc3nc(Nc4cccnc4)sc23)c1 | > 100 | > 100 | > 100 | > 100 | > 100 | > 100 | > 100 | 23.9 | > 100 | > 100 | 6.75 | 0.708 | 0.979 | > 100 | 0.631 | 0.948 | 0.593 | 6.34 | 11.7 | 1.24
